Test results as given in publication PMC8619068, “Transformation of Tetracycline by Manganese Peroxidase from Phanerochaete chrysosporium” (Molecules, 2021).

Test system: T1, manganese peroxidase (MnP)
T1 construct: gene MNP1; native secreted enzyme purified from culture fluid (ultrafiltration, DEAE, Sephadex G-75); single band on SDS-PAGE
Assay: HPLC-UV ([…] nm) of residual tetracycline; non-linear Michaelis-Menten fit
Format: biochemical, Phanerodontia chrysosporium
Settings: MnSO4 0.1 mmol/L, H2O2 0.2 mmol/L, MnP 40 U/L, tartrate buffer 0.05 mol/L pH 4.5, 37 °C (general removal assay); oxidation mediated by Mn3+

## CN(C)[C@@H]1C(=O)C(C(N)=O)=C(O)[C@@]2(O)C(=O)C3=C(O)c4c(O)cccc4[C@@](C)(O)[C@H]3C[C@@H]12 [TC, tetracycline]
  Km: 238.23 mg/L
